Experimental data: patent US20240174671A1, “New 2,3-Dihydro-1H-pyrrolo[3,2-b]pyridine Derivatives as Sigma Ligands” (ACONDICIONAMIENTO TARRASENSE, priority 2021, published 2024)
Where two headings read alike, the source gives them in different places.

Legend:
human σ1 receptor = target: T1, human σ1 receptor (Homo sapiens, UniProt Q99720); assay: Human σ1 receptor radioligand assay ([3H](+)-pentazocine); type: binding
T1 construct: expressed in transfected cells; host or cells: HEK-293
Procedure: Human σ1 Receptor Radioligand Assay
(§1) NBS (non-specific binding) was measured by adding 10 μM haloperidol. The binding of the test compound was measured at either one concentration (% inhibition at 1 or 10 µM) or five different concentrations to determine affinity values (Ki). Plates were incubated at 37° C. for 120 minutes. After the incubation period, the reaction mix was then transferred to MultiScreen HTS, FC plates (Millipore), filtered and plates were washed 3 times with ice-cold 10 mM Tris-HCL (pH7.4). Filters were dried and counted at approximately 40% efficiency in a MicroBeta scintillation counter (Perkin-Elmer) using EcoScint liquid scintillation cocktail.

human σ2/TMEM97 receptor = target: T2, human σ2/TMEM97 receptor (Homo sapiens, UniProt Q5BJF2); assay: Binding assay to human σ2/TMEM97 receptor ([3H]-DTG); settings: transfected HEK-293 membranes, 10 nM [3H]-DTG, 25° C., 120 minutes; read-out: Binding σ-[…] (binding to σ2-receptor expressed as Ki)
T2 construct: expressed in transfected cells; host or cells: HEK-293
T2 sequence (Q5BJF2 whole entry): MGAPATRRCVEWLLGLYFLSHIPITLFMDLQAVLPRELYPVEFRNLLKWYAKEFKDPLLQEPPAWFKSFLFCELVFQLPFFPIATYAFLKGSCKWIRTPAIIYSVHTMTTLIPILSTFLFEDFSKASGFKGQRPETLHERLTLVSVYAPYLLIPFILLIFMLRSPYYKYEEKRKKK
Procedure: Binding Assay to Human σ2/TMEM97 Receptor.
as §1, with “Transfected HEK-293 membranes (15 μg) were incubated with 10 nM [^3H]-1,3-Di-o-tolylguanidine (DTG) in assay buffer containing Tris-HCl 50 mM at pH 8.0. NSB” for “NBS”, “25°” for “37°”, “was” for “was then”, “and” for “and plates were”, “(pH 8.0).” for “(pH7.4).”

[1] = transfected HEK-293 membranes, 5 nM [3H](+)-pentazocine, 37° C., 120 minutes, read-out: Binding σ-[…] (binding to σ1-receptor expressed as Ki)

T1 sequence (Q99720 whole entry): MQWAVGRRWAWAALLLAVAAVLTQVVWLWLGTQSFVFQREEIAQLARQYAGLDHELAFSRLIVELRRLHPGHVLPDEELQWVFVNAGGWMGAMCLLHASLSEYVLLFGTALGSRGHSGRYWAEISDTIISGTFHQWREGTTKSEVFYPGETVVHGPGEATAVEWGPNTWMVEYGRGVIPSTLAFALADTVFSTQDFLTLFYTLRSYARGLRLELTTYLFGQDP

| Structure (SMILES) | Ki (human σ1 receptor; [1]) [nM] | Ki (human σ2/TMEM97 receptor) [nM] | Ki (human σ1 receptor) [nM] |
| --- | --- | --- | --- |
| CN(Cc1ccccc1)C1CCN(C(=O)N2CC(C)(C)c3ncccc32)CC1 [Example 29, (4-(benzyl(methyl)amino)piperidin-1-yl)(3,3-dimethyl-2,3-dihydro-1H-pyrrolo[3,2-b]pyridin-1-yl)methanone] | 100 to 500 | < 100 | – |
| CC1(C)CN(C(=O)NC2CCN(Cc3ccccc3)CC2)c2cc(F)cnc21 [Example 31, N-(1-benzylpiperidin-4-yl)-6-fluoro-3,3-dimethyl-2,3-dihydro-1H-pyrrolo[3,2-b]pyridine-1-carboxamide] | < 100 | 500 to 1000 | – |
| CC1(C)CN(C(=O)NC2CCN(Cc3ccccc3)CC2)c2cccnc21 [Example 32, N-(1-benzylpiperidin-4-yl)-3,3-dimethyl-2,3-dihydro-1H-pyrrolo[3,2-b]pyridine-1-carboxamide] | < 100 | > 1000 | – |
| Cc1ccc2c(n1)C(C)(C)CN2C(=O)NC[C@@H](c1ccc(F)cc1)N(C)C [Example 33, (R)—N-(2-(dimethylamino)-2-(4-fluorophenyl)ethyl)-3,3,5-trimethyl-2,3-dihydro-1H-pyrrolo[3,2-b]pyridine-1-carboxamide] | < 100 | > 1000 | – |
| Cc1ccc2c(n1)C(C)(C)CN2C(=O)NC[C@@H](c1cccc(F)c1)N(C)C [Example 34, (R)—N-(2-(dimethylamino)-2-(3-fluorophenyl)ethyl)-3,3,5-trimethyl-2,3-dihydro-1H-pyrrolo[3,2-b]pyridine-1-carboxamide] | 100 to 500 | > 1000 | – |
| COc1cccc([C@H](CNC(=O)N2CC(C)(C)c3nc(C)ccc32)N(C)C)c1 [Example 35, (R)—N-(2-(dimethylamino)-2-(3-methoxyphenyl)ethyl)-3,3,5-trimethyl-2,3-dihydro-1H-pyrrolo[3,2-b]pyridine-1-carboxamide] | 100 to 500 | > 1000 | – |
| Cc1ccc2c(n1)C(C)(C)CN2C(=O)N1C[C@H]2CN(Cc3ccccc3)C[C@H]2C1 [Example 36, ((3aR,6aS)-5-benzylhexahydropyrrolo[3,4-c]pyrrol-2(1H)-yl)(3,3,5-trimethyl-2,3-dihydro-1H-pyrrolo[3,2-b]pyridin-1-yl)methanone] | 100 to 500 | 500 to 1000 | – |
| Cc1ccc2c(n1)C(C)(C)CN2C(=O)N1CCC2(CCN(Cc3ccccc3)C2)C1 (stereo not shown) [Example 37, (7-benzyl-2,7-diazaspiro[4.4]nonan-2-yl)(3,3,5-trimethyl-2,3-dihydro-1H-pyrrolo[3,2-b]pyridin-1-yl)methanone] | 100 to 500 | < 100 | – |
| Cc1ccc2c(n1)C(C)(C)CN2C(=O)N1CCC2(CCN(Cc3ccccc3)C2)CC1 [Example 38, (2-benzyl-2,8-diazaspiro[4.5]decan-8-yl)(3,3,5-trimethyl-2,3-dihydro-1H-pyrrolo[3,2-b]pyridin-1-yl)methanone] | 100 to 500 | < 100 | – |
| Cc1ccc2c(n1)C(C)(C)CN2C(=O)N1CC[C@H](N(C)Cc2ccccc2)C1 [Example 39, (S)-(3-(benzyl(methyl)amino)pyrrolidin-1-yl)(3,3,5-trimethyl-2,3-dihydro-1H-pyrrolo[3,2-b]pyridin-1-yl)methanone] | 100 to 500 | > 1000 | – |
| CN(Cc1ccccc1)C1CCN(C(=O)N2CC(C)(C)c3nc(C#N)ccc32)CC1 [Example 40, 1-(4-(benzyl(methyl)amino)piperidine-1-carbonyl)-3,3-dimethyl-2,3-dihydro-1H-pyrrolo[3,2-b]pyridine-5-carbonitrile] | < 100 | < 100 | – |
| Cc1ccc2c(n1)C(C)(C)CN2C(=O)NC1CCN(CC(C)C)CC1 [Example 41, N-(1-isobutylpiperidin-4-yl)-3,3,5-trimethyl-2,3-dihydro-1H-pyrrolo[3,2-b]pyridine-1-carboxamide] | 100 to 500 | > 1000 | – |
| Cc1ccc2c(n1)C(C)(C)CN2C(=O)NC1CCN(CC2CCOCC2)CC1 [Example 42, 3,3,5-trimethyl-N-(1-((tetrahydro-2H-pyran-4-yl)methyl)piperidin-4-yl)-2,3-dihydro-1H-pyrrolo[3,2-b]pyridine-1-carboxamide] | 100 to 500 | > 1000 | – |
| Cc1ccc2c(n1)C(C)(C)CN2C(=O)N1CC[C@@H](N(C)Cc2ccccc2)C1 [Example 43, (R)-(3-(benzyl(methyl)amino)pyrrolidin-1-yl)(3,3,5-trimethyl-2,3-dihydro-1H-pyrrolo[3,2-b]pyridin-1-yl)methanone] | 500 to 1000 | > 1000 | – |
| Cc1ccc2c(n1)C(C)(C)CN2C(=O)NC1CCN(Cc2ccc(F)c(F)c2)CC1 [Example 44, N-(1-(3,4-difluorobenzyl)piperidin-4-yl)-3,3,5-trimethyl-2,3-dihydro-1H-pyrrolo[3,2-b]pyridine-1-carboxamide] | < 100 | > 1000 | – |
| CN(Cc1ccc(F)c(C#N)c1)C1CCN(C(=O)N2CC(C)(C)c3ncccc32)CC1 [Example 45, 5-(((1-(3,3-dimethyl-2,3-dihydro-1H-pyrrolo[3,2-b]pyridine-1-carbonyl)piperidin-4-yl)(methyl)amino)methyl)-2-fluorobenzonitrile] | > 1000 | < 100 | – |
| CC1(C)CN(C(=O)NC2CCN(Cc3ccc(F)c(F)c3)CC2)c2cccnc21 [Example 46, N-(1-(3,4-difluorobenzyl)piperidin-4-yl)-3,3-dimethyl-2,3-dihydro-1H-pyrrolo[3,2-b]pyridine-1-carboxamide] | < 100 | > 1000 | – |
| CC1(C)CN(C(=O)NC2CCN(Cc3cccc(F)c3)CC2)c2cccnc21 [Example 47, N-(1-(3-fluorobenzyl)piperidin-4-yl)-3,3-dimethyl-2,3-dihydro-1H-pyrrolo[3,2-b]pyridine-1-carboxamide] | < 100 | > 1000 | – |
| CC1(C)CN(C(=O)NC2CCN(Cc3ccc(F)cc3)CC2)c2cccnc21 [Example 48, N-(1-(4-fluorobenzyl)piperidin-4-yl)-3,3-dimethyl-2,3-dihydro-1H-pyrrolo[3,2-b]pyridine-1-carboxamide] | < 100 | > 1000 | – |
| Cc1ccc2c(n1)CCN2C(=O)N1CCC(N(C)Cc2ccccc2)CC1 [Example 49] | 100 to 500 | 100 to 500 | – |
| Cc1ccc2c(n1)C(C)(C)CN2C(=O)N1CCC(N(C)CCc2ccccc2)CC1 [Example 50, (4-(methyl(phenethyl)amino)piperidin-1-yl)(3,3,5-trimethyl-2,3-dihydro-1H-pyrrolo[3,2-b]pyridin-1-yl)methanone] | 100 to 500 | < 100 | – |
| CN(Cc1ccccc1)C1CCN(C(=O)N2CCc3ncccc32)CC1 [Example 51, (4-(benzyl(methyl)amino)piperidin-1-yl)(2,3-dihydro-1H-pyrrolo[3,2-b]pyridin-1-yl)methanone] | < 100 | 100 to 500 | – |
| CN(CCc1ccccc1)C1CCN(C(=O)N2CC(C)(C)c3ncccc32)CC1 [Example 52, (3,3-dimethyl-2,3-dihydro-1H-pyrrolo[3,2-b]pyridin-1-yl)(4-(methyl(phenethyl)amino)piperidin-1-yl)methanone] | 100 to 500 | < 100 | – |
| CN(CCc1ccccc1)[C@H]1CCCN(C(=O)N2CCc3ncccc32)C1 [Example 53, (S)-(2,3-dihydro-1H-pyrrolo[3,2-b]pyridin-1-yl)(3-(methyl(phenethyl)amino)piperidin-1-yl)methanone] | 100 to 500 | 100 to 500 | – |
| Cc1ccc2c(n1)C(C)(C)CN2C(=O)N1CCC[C@H](N(C)CCc2ccccc2)C1 [Example 54, (S)-(3-(methyl(phenethyl)amino)piperidin-1-yl)(3,3,5-trimethyl-2,3-dihydro-1H-pyrrolo[3,2-b]pyridin-1-yl)methanone] | – | < 100 | 100 to 500 |
| Cc1ccc2c(n1)C(C)(C)CN2C(=O)NC1CCN(Cc2cccc(Cl)c2)CC1 [Example 55, N-(1-(3-chlorobenzyl)piperidin-4-yl)-3,3,5-trimethyl-2,3-dihydro-1H-pyrrolo[3,2-b]pyridine-1-carboxamide] | < 100 | 100 to 500 | – |
| Cc1ccc2c(n1)C(C)(C)CN2C(=O)N1CCC(N(C)Cc2cccc(S(C)(=O)=O)c2)CC1 [Example 56, (4-(methyl(3-(methylsulfonyl)benzyl)amino)piperidin-1-yl)(3,3,5-trimethyl-2,3-dihydro-1H-pyrrolo[3,2-b]pyridin-1-yl)methanone] | > 1000 | 500 to 1000 | – |
| Cc1ccc2c(n1)C(C)(C)CN2C(=O)N1CCC2(CCN(Cc3ccccc3)CC2)CC1 [Example 57, (9-benzyl-3,9-diazaspiro[5.5]undecan-3-yl)(3,3,5-trimethyl-2,3-dihydro-1H-pyrrolo[3,2-b]pyridin-1-yl)methanone] | < 100 | < 100 | – |
| COc1ccc(CN(C)C2CCN(C(=O)N3CC(C)(C)c4nc(C)ccc43)CC2)cc1 [Example 58, (4-((4-methoxybenzyl)(methyl)amino)piperidin-1-yl)(3,3,5-trimethyl-2,3-dihydro-1H-pyrrolo[3,2-b]pyridin-1-yl)methanone] | 100 to 500 | 100 to 500 | – |
